Test results reported in patent US20220395500A1, “SMALL MOLECULE ACTIVATORS OF INTERFERON REGULATORY FACTOR 3 AND METHODS OF USE THEREOF” (Neuralexo, Inc., priority 2020, published 2022).
pEC50: −log10 of the molar value.

Columns and labels:
[1] = THP1-Dual cytotoxicity (Cell Titer Glo, ATP); format: cell-based, human; details: human, THP1-Dual cells
Outline: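 Human THP1-Dual cells were treated across an 8-point dose-response range. Cytotoxicity was measured in-plate by CellTiter-Glo luminescence, which quantifies ATP as a marker of metabolically active cells, and CC50 was taken as the 50% cytotoxic concentration.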

[2] = system: SH-SY5Y cells; assay: Gene induction in SH-SY5Y cells (qtPCR); format: cell-based, human; details: 20 μM, 3 hours, preliminary results
Method: FIG. 11 is a bar graph showing that the human-specific IRF activator AV-C induces robust IFIT1 and RSAD2 expression, with no increase in TNF expression. SH-SY5Y cells were treated with 20 μM AV-C for 3 hours. RNA was collected from cell pellets and qtPCR was performed with indicated primers. Values at FIG. 11 are normalized to actin and presented as fold change over vehicle control.
To determine if the human specific IRF activator, AV-C could induce IRF activated genes, the human neuroblastoma cell line SH-SY5Y was stimulated with 20 μM AV-C for 3 hours. […] Specifically, as mentioned, SH-SY5Y cells were treated with 20 μM AV-C for 3 hours. RNA was collected from cell pellets and qtPCR was performed with indicated primers. Values at FIG. 11 are normalized to actin and presented as fold change over vehicle control.

[3] = system: IRF-Lucia luciferase reporter (ISRE) in THP1-Dual cells; assay: THP1-Dual IRF-Lucia luciferase reporter assay (ISRE activation); format: cell-based, human; details: THP1-Dual
Outline: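 THP1-Dual cells were differentiated with 5 ng/mL PMA for 48 h at 37° C, washed, then treated with compounds at 10 μM final for 24 h; LPS at 313 ng/mL served as control. ISRE-driven Lucia luciferase in supernatant was read by luminescence.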

[4] = system: IRF-Lucia luciferase reporter (ISRE) in J774-Dual cells; assay: J774-Dual IRF-Lucia luciferase reporter assay (ISRE activation); format: cell-based, mouse; details: J774-Dual
Outline: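 Mouse J774-Dual macrophages, seeded in growth medium 24 h at 37 °C, 5% CO2 before treatment; secreted IRF-Lucia (ISRE-driven) and NF-κB-SEAP read with QUANTI-Luc and QUANTI-Blue. EC50 and CC50 from 8-point dose-response, cytotoxicity by CellTiter-Glo; ISRE:NF-κB ratio calculated.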

pEC50 ([3]; Homo sapiens, THP1-Dual control compound, 8-point dose response, read-out: EC50 ISRE activation): 5.28
Structure (SMILES): CC(C)c1nnc(N2C(=O)c3oc4ccccc4c(=O)c3C2c2ccccc2F)s1 (stereo not drawn) [AV-C, 1-(2-fluorophenyl)-2-(5-isopropyl-1,3,4-thiadiazol-2-yl)-1,2-dihydrochromeno[2,3-c]pyrrole-3,9-dione, reference compound]
CC50 ([1]; THP1-Dual control compound, 8-point dose response, read-out: CC50): 7.9 µM
selectivity ratio ([1]; read-out: Selectivity Index (CC50/EC50) (text: toxicity index)): 1.5
IFIT1 and RSAD2 expression [2]: increased
TNF expression [2]: no increase
ISRE response, % of LPS maximum ([3]; 25 μM): 75%
IRF signal intensity relative to LPS control ([3]; at its EC50): ~10%
IRF activation in mouse cells [4]: minimal IRF activation
ISRE response, % of LPS maximum ([4]; 25 μM): 10%
